In the assay the target is T1, IKK2 (Homo sapiens, UniProt O14920).
T1 construct: made in house; host or cells: insect cells (baculovirus, pFastBac; SF9)
T1 sequence (O14920 1-756): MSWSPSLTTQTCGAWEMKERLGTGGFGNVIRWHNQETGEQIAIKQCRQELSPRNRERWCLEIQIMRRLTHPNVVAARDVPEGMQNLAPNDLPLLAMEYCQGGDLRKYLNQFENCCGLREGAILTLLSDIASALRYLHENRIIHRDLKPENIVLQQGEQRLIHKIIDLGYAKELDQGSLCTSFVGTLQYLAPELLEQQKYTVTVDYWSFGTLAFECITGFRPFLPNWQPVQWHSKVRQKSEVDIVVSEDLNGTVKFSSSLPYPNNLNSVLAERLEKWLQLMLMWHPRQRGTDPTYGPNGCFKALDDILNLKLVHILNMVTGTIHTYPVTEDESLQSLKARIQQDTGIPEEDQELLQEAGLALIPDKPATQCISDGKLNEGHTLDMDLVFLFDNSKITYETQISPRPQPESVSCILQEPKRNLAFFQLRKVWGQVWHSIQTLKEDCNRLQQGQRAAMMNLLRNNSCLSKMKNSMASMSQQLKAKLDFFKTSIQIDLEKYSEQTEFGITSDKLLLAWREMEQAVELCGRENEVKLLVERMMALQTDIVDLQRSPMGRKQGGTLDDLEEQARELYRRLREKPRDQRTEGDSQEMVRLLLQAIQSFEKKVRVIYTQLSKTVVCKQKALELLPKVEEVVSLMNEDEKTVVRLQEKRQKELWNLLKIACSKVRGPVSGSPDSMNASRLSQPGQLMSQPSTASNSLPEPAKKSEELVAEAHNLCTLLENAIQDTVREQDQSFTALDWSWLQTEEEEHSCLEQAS
The assay is described as follows: IKKβ Resin Enzyme Assay (IKK2 resin). Format: biochemical. An excerpt: cDNAs of human IKK1 and IKK2 were amplified by reverse transcriptase-polymerase chain reaction from human placental RNA (Clonetech). hIKK1 was subcloned into pFastBac HTa (Life Technologies) and expressed as N-terminal His6-tagged fusion protein. The hIKK2 cDNA was amplified using a reverse oligonucleotide primer which incorporated the peptide sequence for a FLAG-epitope tag at the C-terminus of the IKK2 coding region ([…]). The hIKK2:FLAG cDNA was subcloned into the baculovirus vector pFastBac. The rhIKK2 ([…]) mutant was constructed in the same vector used for wild type rhIKK2 using a QuikChange™ mutagenesis kit (Stratagene). Viral stocks of each construct were used to infect insect cells grown in 40 L suspension culture. […] Cell lysates were stored at −80° C. until purification of the recombinant proteins was undertaken as described below.
A 10-liter culture of baculovirus-expressing IKK2 tagged with FLAG peptide was centrifuged and the cell pellet (MOI=0.1 and I=72 hrs) was re-suspended in buffer A. These cells were microfluidized, and centrifuged at 100,000×g for 45 min. Supernatant was passed over a G-25 column equilibrated with Buffer A. Protein peak was collected and incubated with anti-FLAG affinity resin on a rotator overnight in buffer B. The resin was washed in batch with 10–15 bed volumes of buffer C. Washed resin was poured into a column and rhIKK2 homodimer was eluted using 5 bed volumes of buffer B containing FLAG peptide. 5 mM DTT, 0.1% NP-40 and BSA (concentrated to 0.1% in final amount) was added to the eluted enzyme before concentrating in using an Amicon membrane with a molecular weight cut-off of 30 kDa. Enzyme was aliquoted and stored at −80° C.
IKKβ kinase activity was measured using a biotinylated IκBα peptide ([…]32-Gly-Leu-Asp-Ser36-Met-Lys-Asp-Glu-Glu) (American Peptide Co.). […] ATP (Amersham) (about 1×10^5 cpm), 1 μM ATP (Sigma), 1 mM DTT (Sigma), 2 mM MgCl2 (Sigma), 2 mM MnCl2 (Sigma), 10 mM NaF (Sigma), 25 mM Hepes (Sigma) buffer, pH 7.6 and 20 μl enzyme solution and 10 ul inhibitor in a final volume of 50 μl. After incubation at 25° C. for 30 min, 150 μl resin (Dowex anion-exchange resin AG1X8 200–400 mesh) in 900 mM formate, pH 3.0 was added to each well to stop the reaction. Resin was allowed to settle for one hour and 50 ul of supernatant was removed to a Micolite-2 flat bottom plate (Dynex). 150 μl of scintillation fluid (Microscint 40) (Packard) was added to each well. Incorporation of [γ-^33P] ATP was measured using a Top-Count NXT (Packard).

Setting [1] is: Table 2, read-out: IKK Resin IC50.
Setting [2] is: Table 4, read-out: IKK2 Resin IC50.
The mark [3] stands for this setting: Table for Examples 381-385 (headed TABLE 14), read-out: IKK2 Resin IC50.
[4] abbreviates: Table 3, read-out: IKK Resin IC50.
[5] abbreviates: Table 11, read-out: IKK2 Resin IC50.

Structures can show the parent of a compound that is named as a salt. Where two headings read alike, the source gives them in different places.

`CNS(=O)(=O)c1ccc(-n2nc(C(N)=O)c3c2-c2cc(NC(=O)c4ccccc4Cl)ccc2CC3)cc1` [Example 422, 8-[(2-chlorobenzoyl)amino]-1-{4-[(methylamino)sulfonyl]phenyl}-4,5-dihydro-1H-benzo[g]indazole-3-carboxamide]: where the note is “read-out: IKK-2 resin IC50”, the IC50 is at most 1000 nM.
Take `CS(=O)(=O)c1ccc(-n2nc(C(N)=O)c3c2-c2cc(NC(=O)c4cccc(Cl)c4F)ccc2CC3)cc1` [Example 104, 8-[(3-chloro-2-fluorobenzoyl)amino]-1-[4-(methylsulfonyl)phenyl]-4,5-dihydro-1H-benza[g]indazole-3-carboxamide]: the IC50 under setting [1] is at most 1000 nM.
For `NC(=O)c1nn(-c2ccc3c(c2)OCO3)c2c1CCc1ccc(NC(=O)c3ccccc3Br)cc1-2` [Example 177, 1-(1,3-benzodioxol-5-yl)-8-[(2-bromobenzoyl)amino]-4,5-dihydro-1H-benzo[g]indazole-3-carboxamide], the IC50 under setting [2] was at most 1000 nM.
In the case of `NC(=O)c1nn(-c2ccsc2)c2c1CCc1ccc(NC(=O)c3ccncc3Cl)cc1-2` [Example 383, 8-[(3-chloroisonicotinoyl)amino]-1-thien-3-yl-4,5-dihydro-1H-benzo[g]indazole-3-carboxamide], the IC50 under setting [3] was at most 1000 nM.
Take `CS(=O)(=O)c1ccc(C(=O)Nc2ccc3c(c2)-c2c(c(C(N)=O)nn2-c2ccc(F)cc2)CC3)c(Cl)c1` [Example 226, 8-{[2-chloro-4-(methylsulfonyl)benzoyl]amino}-1-(4-fluorophenyl)-4,5-dihydro-1H-benzo[g]indazole-3-carboxamide]: the IC50 (Table 6, read-out: IKK2 Resin IC 50) was at most 1000 nM.
On to `NC(=O)c1nn(-c2cccc(O)c2)c2c1CCc1ccc(NC(=O)c3ccncc3Cl)cc1-2` [Example 281, 8-[(3-chloroisonicotnoyl)amino]-1-(3-hydroxyphenyl)-4,5-dihydro-1H-benzo[g]indazole-3-carboxamide], for which the IC50 (Table 10, read-out: IKK2 Resin IC50) was at most 1000 nM.
On to `NC(=O)c1nn(-c2ccc3c(c2)OCO3)c2c1CCc1ccc(NC(=O)c3ccc(Cl)cc3Cl)cc1-2` [Example 195, 1-(1,3-benzodioxol-5-yl)-8-[(2,4-dichlorobenzoyl)amino]-4,5-dihydro-1H-benzo[g]indazole-3-carboxamide], for which the IC50 under setting [2] is at most 1000 nM.
On to `CN(C)CCNC(=O)c1ccc(-n2nc(C(N)=O)c3c2-c2cc(NC(=O)c4ccccc4Cl)ccc2CC3)cc1` [Example 380, 8-[(2-chlorobenzoyl)amino]-1-[4-({[2-(dimethylamino)ethyl]amino}carbonyl)phenyl]-4,5-dihydro-1H-benzo[g]indazole-3-carboxamide hydrochloride], for which, for the setting “Table 15, read-out: IKK2 Resin IC50”, the IC50 was in the range of 1000 to 10000 nM.
As for `CS(=O)(=O)c1ccc(-n2nc(C(N)=O)c3c2-c2cc(NC(=O)c4cc(Cl)ccc4Cl)ccc2CC3)cc1` [Example 108, 8-[(2,5-dichlorobenzoyl)amino]-1-[4-(methylsulfonyl)phenyl]-4,5-dihydro-1H-benzo[g]indazole-3-carboxamide], under setting [1], the IC50 was at most 1000 nM.
For `CS(=O)(=O)c1ccc(-n2nc(C(N)=O)c3c2-c2cc(NC(=O)c4ccccc4C(F)(F)F)ccc2CC3)cc1` [Example 93, 1-[4-(methylsulfonyl)phenyl]-8-{[2-(trifluoromethyl)benzoyl]amino}-4,5-dihydro-1H-benzo[g]indazole-3-carboxamide], the IC50 under setting [1] is at most 1000 nM.
Turning to `Cc1ccc([N+](=O)[O-])c(C(=O)Nc2ccc3c(c2)-c2c(c(C(N)=O)nn2-c2ccc(S(C)(=O)=O)cc2)CC3)c1` [Example 153], the IC50 under setting [4] was at most 1000 nM.
Turning to `NC(=O)/C=C/c1ccc(-n2nc(C(N)=O)c3c2-c2cc(NC(=O)c4ccccc4Cl)ccc2CC3)cc1` [Example 292, 1-{4-[(1E)-3-amino-3-oxoprop-1-enyl]phenyl}-8-[(2-chlorobenzoyl)amino]-4,5-dihydro-1H-benzo[g]indazole-3-carboxamide], under setting [5], the IC50 was at most 1000 nM.
In the case of `CS(=O)(=O)c1ccc(-n2nc(C(N)=O)c3c2-c2cc(NC(=O)c4ccc([N+](=O)[O-])cc4[N+](=O)[O-])ccc2CC3)cc1` [Example 155, 8-[(2,4-dinitrobenzoyl)animo]-1-[4-(methylsulfonyl)phenyl]-4,5-dihydro-1H-benzo[g]indazole-3-carboxamide], under setting [4], the IC50 is at most 1000 nM.
`CNC(=O)/C=C/c1ccc(-n2nc(C(N)=O)c3c2-c2cc(NC(=O)c4cccnc4Cl)ccc2CC3)cc1` [Example 301, 8-{[(2-chloropyridin-3-yl)carbonyl]amino}-1-{4-[(1E)-3-(methylamino)-3-oxoprop-1-enyl]phenyl}-4,5-dihydro-1H-benzo[g]indazole-3-carboxamide]: the IC50 under setting [5] was at most 1000 nM.
`CC(C)NCC(=O)Nc1ccc2c(c1)-c1c(c(C(N)=O)nn1-c1ccc3c(c1)OCO3)CC2` [Example 444, 1-(1,3-benzodioxol-5-yl)-8-[(N-isopropylglycyl)amino]-4,5-dihydro-1H-benzo[g]indazole-3-carboxamide]: the IC50 (Table 23, read-out: IKK2 Resin IC50) is at most 1000 nM.
For `NC(=O)c1nn(-c2ccc(O)cc2)c2c1CCc1ccc(NC(=O)c3ccccc3Cl)cc1-2` [Example 261, 8-[(2-chlorobenzoyl)amino]-1-(4-hydroxyphenyl)-4,5-dihydro-1H-benzo[g]indazole-3-carboxamide], the IC50 (Table 8, read-out: IKK2 Resin IC50) is at most 1000 nM.
As to `NC(=O)c1nn(-c2cc(F)cc(F)c2)c2c1CCc1ccc(NC(=O)c3cccnc3Cl)cc1-2` [Example 347, 8-{[(2-chloropyridin-3-yl)carbonyl]amino}-1-(3,5-difluorophenyl)-4,5-dihydro-1H-benzo[g]indazole-3-carboxamide], the IC50 (Table 14, read-out: IKK2 Resin IC50) is at most 1000 nM.
Regarding `NC(=O)c1nn(-c2ccc(/C=C/CCO)cc2)c2c1CCc1ccc(NC(=O)c3ccccc3Cl)cc1-2` [Example 298, 8-[(2-chlorobenzoyl)amino]-1-{4-[(1E)-4-hydroxybut-1-enyl]phenyl}-4,5-dihydro-1H-benzo[g]indazole-3-carboxamide], under setting [5], the IC50 is at most 1000 nM.
As for `CC1(C)Cc2c(C(N)=O)nn(-c3ccc4c(c3)OCO4)c2-c2cc(NC(=O)c3ccncc3Cl)ccc21` [Example 435, 1-(1,3-benzodioxol-5-yl)-8-[(3-chloroisonicotinoyl)amino]-5,5-dimethyl-4,5-dihydro-1H-benzo[g]indazole-3-carboxamide], the IC50 (Table 22, read-out: IKK2 Resin IC50) is at most 1000 nM.
Regarding `NC(=O)c1nn(-c2ccc(N)nc2)c2c1CCc1ccc(NC(=O)c3ccncc3Cl)cc1-2` [Example 381, 1-(6-aminopyridin-3-yl)-8-[(3-chloroisonicotinoyl)amino]-4,5-dihydro-1H-benzo[g]indazole-3-carboxamide], the IC50 under setting [3] was at most 1000 nM.
On to `CC(=O)CCc1ccc(-n2nc(C(N)=O)c3c2-c2cc(NC(=O)c4ccccc4Cl)ccc2CC3)cc1` [Example 296, 8-[(2-chlorobenzoyl)amino]-1-[4-(3-oxobutyl)phenyl]-4,5-dihydro-1H-benzo[g]indazole-3-carboxamide], for which the IC50 under setting [5] was at most 1000 nM.
